From patent US11535606B2, “Substituted quinoline-8-carbonitrile derivatives with androgen receptor degradation activity and uses thereof” (ACCUTAR BIOTECHNOLOGY INC., priority 2019, dated 2022)
Where a chain is given by its changes, count along the chain named.

What was measured:
androgen receptor (AR) [1] = target: T1, androgen receptor (AR) (Homo sapiens, UniProt P10275, T878A); experiment: AR degradation activity in LNCAP cells (Western blot); format: cell-based; conditions: 24 hours after administration, DC50 = concentration needed for 50% target protein degradation
T1 construct: endogenous in cells; host or cells: LNCAP
T1 sequence (P10275 1-920 T878A): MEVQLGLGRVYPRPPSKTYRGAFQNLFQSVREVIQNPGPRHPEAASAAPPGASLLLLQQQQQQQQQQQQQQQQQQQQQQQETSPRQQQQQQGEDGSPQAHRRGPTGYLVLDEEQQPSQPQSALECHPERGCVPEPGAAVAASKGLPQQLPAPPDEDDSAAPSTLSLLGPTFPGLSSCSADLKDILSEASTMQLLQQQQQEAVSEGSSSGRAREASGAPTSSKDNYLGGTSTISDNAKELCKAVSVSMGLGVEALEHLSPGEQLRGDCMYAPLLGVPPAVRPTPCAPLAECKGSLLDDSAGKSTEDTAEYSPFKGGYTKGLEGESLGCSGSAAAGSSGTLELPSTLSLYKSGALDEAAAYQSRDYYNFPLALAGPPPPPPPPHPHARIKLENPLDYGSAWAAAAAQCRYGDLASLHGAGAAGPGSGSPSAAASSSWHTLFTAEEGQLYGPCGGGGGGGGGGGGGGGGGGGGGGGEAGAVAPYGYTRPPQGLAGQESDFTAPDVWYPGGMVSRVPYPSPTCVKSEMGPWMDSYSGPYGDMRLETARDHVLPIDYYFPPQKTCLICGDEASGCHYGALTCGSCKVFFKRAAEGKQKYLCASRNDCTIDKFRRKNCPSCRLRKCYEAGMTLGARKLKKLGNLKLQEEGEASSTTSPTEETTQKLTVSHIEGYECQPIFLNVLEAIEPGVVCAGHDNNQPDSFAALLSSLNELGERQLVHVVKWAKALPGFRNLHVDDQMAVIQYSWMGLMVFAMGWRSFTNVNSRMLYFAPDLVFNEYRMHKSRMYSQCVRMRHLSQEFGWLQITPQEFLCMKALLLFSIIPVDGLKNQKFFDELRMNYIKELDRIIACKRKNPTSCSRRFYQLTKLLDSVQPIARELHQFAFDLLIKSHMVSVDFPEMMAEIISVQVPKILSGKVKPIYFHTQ
Method: (§1) LNCAP, VCAP and 22Rv1 cells were plated in 24-well plates at 1.5×10E5 cells/well in the RPMI growth medium containing 10% FBS and 1% Penicillin Streptomycin, and then incubated at 37° C. overnight. The following day, the test compound was administered to the cells by using 1000× compound stock solution prepared in DMSO at various concentrations. After administration of the compound, the cells were then incubated at 37° C. for 24 hours. Upon completion, the cells were washed with PBS and protein was collected in Laemmli sample buffer (1×; VWR International). Proteins in cell lysate were separated by SDS-PAGE and transferred to Odyssey nitrocellulose membranes (Licor) with Iblot® dry blotting transfer system (ThermoFisher). Nonspecific binding was blocked by incubating membranes with Intercept Blocking Buffer (Licor) for 1 hour at room temperature with gentle shaking. The membranes were then incubated overnight at 4° C. with Primary antibodies rabbit anti-AR (1:1,000, Cell Signaling, 5153) and mouse anti-GAPDH (1:5,000, Santa Cruz Biotechnology, sc-47724) diluted in Intercept Blocking Buffer containing 0.1% Tween 20. After washing 3 times with TBS-T, the membranes were incubated with IRDye® 800CW goat anti-mouse IgG (1:20,000, Licor) or IRDye® 800CW goat anti-rabbit IgG (1:20,000, Licor) for 1 hour. After TBS-T washes, membranes were rinsed in TBS and scanned on Odyssey® CLx Imaging System (Licor). The bands were quantified using Image Studio™ Software (Licor).
(§2) Table 4 summarizes the androgen receptor (AR) degradative activity of exemplary compounds in LNCAP, VCAP and 22Rv1 cell lines 24 hours after administration. DC50: compound concentration needed for 50% target protein degradation.

androgen receptor (AR) [2] = target: T2, androgen receptor (AR) (Homo sapiens, UniProt P10275); experiment: AR degradation activity in VCAP cells (Western blot); format: cell-based; conditions: 24 hours after administration, DC50 = concentration needed for 50% target protein degradation
T2 construct: endogenous in cells; host or cells: VCAP
T2 sequence (P10275 1-920): T1 sequence (P10275 1-920 T878A) with A878T
Method: as §1, §2

| DC50 (androgen receptor (AR) [1]) [µM] | DC50 (androgen receptor (AR) [2]) [µM] | SMILES |
| --- | --- | --- |
| < 0.01 | < 0.01 | N#Cc1ccc(O[C@H]2CC[C@H](NC(=O)c3ccc(N4CCC(CN5CCN(c6ccc7c(c6)C(=O)N(C6CCC(=O)NC6=O)C7=O)CC5)CC4)nc3)CC2)c2cccnc12 (relative stereo) [Compound 3-13, trans-N-(4-((8-cyanoquinolin-5-yl)oxy)cyclohexyl)-6-(4-((4-(2-(2,6-dioxopiperidin-3-yl)-1,3-dioxoisoindolin-5-yl)piperazin-1-yl)methyl)piperidin-1-yl)nicotinamide] |
| < 0.01 | < 0.01 | N#Cc1ccc(O[C@H]2CC[C@H](NC(=O)c3ccc(N4CCC(CCN5CCN(c6ccc7c(c6)C(=O)N(C6CCC(=O)NC6=O)C7=O)CC5)CC4)cc3)CC2)c2cccnc12 (relative stereo) [Compound 3-22, trans-N-(4-((8-cyanoquinolin-5-yl)oxy)cyclohexyl)-4-(4-(2-(4-(2-(2,6-dioxopiperidin-3-yl)-1,3-dioxoisoindolin-5-yl)piperazin-1-yl)ethyl)piperidin-1-yl)benzamide] |
| < 0.01 | – | CN(CC1CCN(c2ccc(C(=O)NC3CCC(Oc4ccc(C#N)c5ncccc45)CC3)cn2)CC1)C1CC(Oc2ccc3c(c2)C(=O)N(C2CCC(=O)NC2=O)C3=O)C1 (centres unmarked) [Compound 3-9] |
| < 0.01 | – | CC(C)N(CC1CCN(c2ccc(C(=O)NC3CCC(Oc4ccc(C#N)c5ncccc45)CC3)cn2)CC1)C1CC(Oc2ccc3c(c2)C(=O)N(C2CCC(=O)NC2=O)C3=O)C1 (centres unmarked) [Compound 3-11] |
| < 0.01 | < 0.01 | N#Cc1ccc(O[C@H]2CC[C@H](NC(=O)c3cnc(N4CCC(CN5CCN(c6ccc7c(c6)C(=O)N(C6CCC(=O)NC6=O)C7=O)CC5)CC4)nc3)CC2)c2cccnc12 (stereo partly drawn) [Compound 3-15, trans-N-(4-((8-cyanoquinolin-5-yl)oxy)cyclohexyl)-2-(4-((4-(2-(2,6-dioxopiperidin-3-yl)-1,3-dioxoisoindolin-5-yl)piperazin-1-yl)methyl)piperidin-1-yl)pyrimidine-5-carboxamide] |
| < 0.01 | < 0.01 | N#Cc1ccc(O[C@H]2CC[C@H](NC(=O)c3ccc(N4CCC(CN5CCN(c6ccc7c(c6)C(=O)N(C6CCC(=O)NC6=O)C7=O)CC5)CC4)nn3)CC2)c2cccnc12 (stereo partly drawn) [Compound 3-16, trans-N-(4-((8-cyanoquinolin-5-yl)oxy)cyclohexyl)-6-(4-((4-(2-(2,6-dioxopiperidin-3-yl)-1,3-dioxoisoindolin-5-yl)piperazin-1-yl)methyl)piperidin-1-yl)pyridazine-3-carboxamide] |
| < 0.01 | – | N#Cc1ccc(OC2CCC(NC(=O)c3cnc(N4CCC(CN5CCN(c6ccc7c(c6)C(=O)N(C6CCC(=O)NC6=O)C7=O)CC5)CC4)cn3)CC2)c2cccnc12 (centres unmarked) [Compound 3-17] |
| < 0.01 | < 0.01 | N#Cc1ccc(O[C@H]2CC[C@H](NC(=O)c3ccc(N4CCC(CN5CCN(c6ccc7c(c6)C(=O)N(C6CCC(=O)NC6=O)C7=O)CC5)CC4)cc3)CC2)c2cccnc12 (some centres unmarked) [Compound 3-18, N-(4-((8-cyanoquinolin-5-yl)oxy)cyclohexyl)-4-(4-((4-(2-(2,6-dioxopiperidin-3-yl)-1,3-dioxoisoindolin-5-yl)piperazin-1-yl)methyl)piperidin-1-yl)benzamide] |
| < 0.01 | < 0.01 | N#Cc1ccc(OC2CCC(NC(=O)c3ccc(N4CCC(CN5CCN(c6ccc7c(c6)C(=O)N(C6CCC(=O)NC6=O)C7=O)CC5)CC4)c(F)c3)CC2)c2cccnc12 (centres unmarked) [Compound 3-19, N-(4-((8-cyanoquinolin-5-yl)oxy)cyclohexyl)-4-(4-((4-(2-(2,6-dioxopiperidin-3-yl)-1,3-dioxoisoindolin-5-yl)piperazin-1-yl)methyl)piperidin-1-yl)-3-fluorobenzamide] |
| < 0.01 | < 0.01 | N#Cc1ccc(OC2CCC(NC(=O)c3cnc(N4CCC(CN5CCN(c6ccc7c(c6)CN([C@H]6CCC(=O)NC6=O)C7=O)CC5)CC4)nc3)CC2)c2cccnc12 (some centres unmarked) [Compound 3-30] |
| < 0.01 | – | N#Cc1ccc(OC2CCC(NC(=O)c3ccc(N4CCC(CN5CCN(c6cc7c(cc6F)C(=O)N(C6CCC(=O)NC6=O)C7=O)CC5)CC4)nc3)CC2)c2cccnc12 (centres unmarked) [Compound 3-35] |
| < 0.01 | – | CC(C)N(CC1CCN(c2ccc(C(=O)NC3CCC(Oc4ccc(C#N)c5ncccc45)CC3)nn2)CC1)C1CC(Oc2ccc3c(c2)C(=O)N(C2CCC(=O)NC2=O)C3=O)C1 (centres unmarked) [Compound 3-43] |
| > 0.1 | – | N#Cc1ccc(OC2CCC(NC(=O)c3ccc(N4CCC(CN5CCN(c6cc7c(cc6F)C(=O)N(C6CCC(=O)NC6=O)C7=O)CC5)CC4)cc3)CC2)c2cccnc12 (centres unmarked) [Compound 3-49] |
| < 0.01 | – | N#Cc1ccc(OC2CCC(NC(=O)c3ccc(N4CCC(CN5CCN(c6cc7c(cc6F)C(=O)N(C6CCC(=O)NC6=O)C7=O)CC5)CC4)c(F)c3)CC2)c2cccnc12 (centres unmarked) [Compound 3-50] |
| < 0.01 | – | N#Cc1ccc(OC2CCC(NC(=O)c3cnc(N4CCC(CN5CCN(c6cc7c(cc6F)C(=O)N(C6CCC(=O)NC6=O)C7=O)CC5)CC4)nc3)CC2)c2cccnc12 (centres unmarked) [Compound 3-51] |
| < 0.01 | – | N#Cc1ccc(OC2CCC(NC(=O)c3cnc(N4CCC(CN5CCN(c6cc7c(cc6F)C(=O)N(C6CCC(=O)NC6=O)C7=O)CC5)CC4)cn3)CC2)c2cccnc12 (centres unmarked) [Compound 3-52] |
| < 0.01 | – | N#Cc1ccc(O[C@H]2CC[C@H](NC(=O)c3cnc(N4CCC(CN5CCN(c6cc7c(cc6F)C(=O)N(C6CCC(=O)NC6=O)C7=O)CC5)CC4)c(F)c3)CC2)c2cccnc12 (some centres unmarked) [Compound 3-53] |
| < 0.01 | – | N#Cc1ccc(O[C@H]2CC[C@H](NC(=O)c3cnc(N4CC[C@@H](CN5CCN(c6ccc7c(c6)C(=O)N(C6CCC(=O)NC6=O)C7=O)CC5)C4)nc3)CC2)c2cccnc12 (some centres unmarked) [Compound 3-54] |
| < 0.01 | – | N#Cc1ccc(O[C@H]2CC[C@H](NC(=O)c3cnc(N4CC[C@H](CN5CCN(c6ccc7c(c6)C(=O)N(C6CCC(=O)NC6=O)C7=O)CC5)C4)nc3)CC2)c2cccnc12 (some centres unmarked) [Compound 3-55] |
